Measurements: the supplement of paper PMC10307832

How the values were obtained:
Assay in all cases: relative viability (nuclei count vs DMSO), 5 days (fraction); higher = more cells survive
[1] = compound: CC[C@@H](C)CNCC(=O)N1CCC2=C([C@@H]1COC3=CC=CC(=C3)C)C=CS2 [RU-SKI 43] + Cc1nc(NC(=O)N2CCC[C@H]2C(N)=O)sc1-c1ccnc(C(C)(C)C(F)(F)F)c1 [Alpelisib] (partner 2 µM)
In short: (§1)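 Relative viability was taken as the ratio of nuclei in treated wells to nuclei in vehicle wells. Lung cancer cell lines in 1536-well plates received compounds by pin tool one day after seeding, either one drug alone or a fixed anchor-drug dose plus five library-drug doses (not always all listed) in √10 steps. Nuclei were counted on 4× images after 5 days of treatment, and values are medians of duplicate plates.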

[2] = compound: CCc1c2c(nc3ccc(OC(=O)N4CCC(N5CCCCC5)CC4)cc13)-c1cc3c(c(=O)n1C2)COC(=O)[C@]3(O)CC [Irinotecan] + CC(=O)Nc1cccc(-n2c(=O)n(C3CC3)c(=O)c3c(Nc4ccc(I)cc4F)n(C)c(=O)c(C)c32)c1 [Trametinib] (partner 0.02 µM)
In short: as §1

[3] = compound: CCc1c2c(nc3ccc(OC(=O)N4CCC(N5CCCCC5)CC4)cc13)-c1cc3c(c(=O)n1C2)COC(=O)[C@]3(O)CC [Irinotecan] + O=C(c1cc(Cc2n[nH]c(=O)c3ccccc23)ccc1F)N1CCN(C(=O)C2CC2)CC1 [Olaparib] (partner 8 µM)
In short: as §1

[4] = compound: Cn1cc(-c2cnc3ccc4ccc(CS(=O)(=O)NCc5ccccn5)cc4c(=O)c3c2)cn1 [MK-8033] + CS(=O)(=O)CCNCc1ccc(-c2ccc3ncnc(Nc4ccc(OCc5cccc(F)c5)c(Cl)c4)c3c2)o1 [Lapatinib] (partner 2 µM)
In short: as §1

Cell Line | relative viability ([1]; first compound 0.1 µM) | relative viability ([1]; first compound 0.3162 µM) | relative viability ([1]; first compound 1 µM) | relative viability ([1]; first compound 3.162 µM) | relative viability ([1]; first compound 10 µM) | relative viability ([2]; first compound 0.6325 µM) | relative viability ([2]; first compound 2 µM) | relative viability ([2]; first compound 6.325 µM) | relative viability ([2]; first compound 20 µM) | relative viability ([3]; first compound 0.6325 µM) | relative viability ([3]; first compound 2 µM) | relative viability ([3]; first compound 6.325 µM) | relative viability ([3]; first compound 20 µM) | relative viability ([4]; first compound 0.02 µM) | relative viability ([4]; first compound 0.06325 µM) | relative viability ([4]; first compound 0.2 µM) | relative viability ([4]; first compound 0.6325 µM) | relative viability ([4]; first compound 2 µM)
HCC-366 | 0.439 | 0.53 | 0.438 | 0.572 | 0.355 | 0.266 | 0.184 | 0.0834 | 0.0768 | 0.206 | 0.15 | 0.0823 | 0.0649 | 1.04 | 0.994 | 0.972 | 1.05 | 1.05
HCC-827 | 0.92 | 1.06 | 1.03 | 1.01 | 0.965 | 0.512 | 0.383 | 0.202 | 0.203 | 0.379 | 0.236 | 0.212 | 0.165 | 0.195 | – | 0.188 | 0.184 | 0.218
HOP-62 | 0.978 | 0.934 | 1.26 | 1.09 | 1.01 | 0.311 | 0.23 | 0.23 | 0.228 | – | 0.201 | 0.147 | 0.169 | 1.01 | 0.753 | 0.786 | 1.07 | 0.987
IA-LM | 1.02 | 0.795 | 0.902 | 0.91 | 0.694 | – | – | – | – | 0.537 | 0.177 | 0.166 | 0.0811 | 0.682 | 0.636 | 0.66 | 0.633 | 0.773
LC-2-ad | 0.836 | 1.02 | 0.932 | 0.924 | 0.779 | 0.657 | 0.365 | 0.275 | 0.253 | 0.389 | 0.337 | 0.282 | 0.24 | 1.09 | 0.915 | 0.877 | 1.11 | 0.806
LCLC-97TM1 | 0.215 | – | 0.206 | 0.241 | 0.234 | 0.131 | 0.14 | 0.128 | 0.154 | 0.0852 | 0.144 | 0.0736 | 0.13 | 1.35 | 1.06 | 0.656 | 0.957 | 0.929
LCLC-103H | 0.941 | 1.06 | 1.05 | 1.14 | 0.91 | 0.655 | 0.603 | 0.463 | 0.479 | 0.469 | 0.483 | 0.407 | 0.444 | – | – | – | – | –
LK-2 | 1.27 | 1.41 | 1.18 | – | 1.24 | 0.821 | 0.7 | 0.465 | 0.281 | 0.481 | 0.426 | 0.201 | 0.235 | 0.968 | 0.807 | 0.963 | 1.1 | 0.807
LOU-NH91 | 0.72 | 0.738 | 0.711 | 0.681 | 0.7 | 0.774 | 0.768 | 0.466 | 0.29 | 0.712 | 0.477 | 0.321 | 0.153 | 0.785 | – | 0.735 | 0.772 | 0.745
LU99A | 0.526 | 0.558 | 0.5 | 0.578 | 0.456 | 0.184 | 0.182 | 0.164 | 0.156 | 0.126 | 0.126 | 0.119 | 0.15 | 1.03 | 0.892 | 0.97 | 0.893 | 0.764
LXF-289 | 1.02 | 0.96 | 1.1 | 1.13 | 0.963 | 0.653 | 0.328 | 0.268 | 0.197 | 0.211 | 0.215 | 0.162 | 0.158 | 0.902 | 0.907 | 0.874 | 0.917 | 0.875
NCI-H23 | 0.648 | 0.796 | 0.81 | 0.697 | 0.628 | 0.35 | 0.289 | 0.187 | 0.191 | 0.245 | 0.254 | 0.207 | 0.2 | 1.27 | 0.818 | 0.919 | 1.35 | 1.09
NCI-H322M | 0.85 | 0.852 | 0.833 | 0.891 | 0.794 | 0.508 | 0.616 | 0.481 | 0.304 | 0.135 | 0.642 | 0.538 | 0.235 | 0.605 | 0.508 | 0.531 | 0.575 | 0.602
NCI-H441 | 0.87 | 0.907 | 0.573 | 0.68 | 0.946 | 0.405 | 0.426 | 0.141 | 0.198 | 0.243 | 0.241 | 0.256 | 0.229 | – | – | – | – | –
NCI-H522 | – | – | – | – | – | 0.67 | 0.599 | 0.517 | 0.476 | 0.493 | 0.532 | 0.453 | 0.525 | – | – | – | – | –
NCI-H1299 | 1.18 | 1.14 | 1.03 | 1.08 | 1.15 | – | – | – | – | 0.539 | 0.478 | 0.337 | 0.207 | 0.989 | 0.947 | 0.964 | 0.965 | 0.982
NCI-H1563 | 0.862 | 0.925 | 0.903 | 0.853 | 0.862 | – | – | – | – | – | – | – | – | 0.965 | 0.833 | 0.966 | 0.864 | 0.886
NCI-H1648 | – | – | – | – | – | 0.441 | 0.383 | 0.299 | 0.323 | 0.525 | 0.388 | 0.35 | 0.276 | – | – | – | – | –
NCI-H1650 | – | – | – | – | – | 0.484 | 0.526 | 0.45 | 0.125 | 0.722 | 0.436 | 0.296 | 0.139 | 0.823 | 0.69 | 0.737 | 0.709 | 0.707
NCI-H1703 | 0.329 | 0.31 | 0.338 | 0.339 | 0.239 | – | – | – | – | 0.512 | 0.375 | 0.169 | 0.164 | 1.04 | 1.04 | 0.99 | 0.912 | 1.05
NCI-H2342 | – | – | – | – | – | 0.872 | 0.89 | 0.786 | 0.494 | 0.412 | 0.386 | 0.352 | 0.384 | – | – | – | – | –
SW 900 | – | – | – | – | – | – | 0.522 | 0.275 | 0.284 | – | 0.474 | 0.334 | 0.384 | – | – | – | – | –
